# Calls of active or inactive are those of the source. No cut-off for these calls is given here.
# Key:
# [1] = Drug metabolism in rat hepatocytes assessed as glucuronidation at 10 uM incubated for 30 mins by LC-MS/MS analysis; type: ADME, cell-based, Hepatocyte; conditions: 0.5 h
# [2] = molecular target: High affinity cGMP-specific 3',5'-cyclic phosphodiesterase 9A (Homo sapiens, UniProt O76083); experiment: Inhibition of full length human PDE9A expressed in Sf9 insect cells using [3H]-cGMP as substrate incubated for 60 mins by microbeta scintillation counter analysis
# Chain of High affinity cGMP-specific 3',5'-cyclic phosphodiesterase 9A (Homo sapiens, UniProt O76083) (O76083 whole entry): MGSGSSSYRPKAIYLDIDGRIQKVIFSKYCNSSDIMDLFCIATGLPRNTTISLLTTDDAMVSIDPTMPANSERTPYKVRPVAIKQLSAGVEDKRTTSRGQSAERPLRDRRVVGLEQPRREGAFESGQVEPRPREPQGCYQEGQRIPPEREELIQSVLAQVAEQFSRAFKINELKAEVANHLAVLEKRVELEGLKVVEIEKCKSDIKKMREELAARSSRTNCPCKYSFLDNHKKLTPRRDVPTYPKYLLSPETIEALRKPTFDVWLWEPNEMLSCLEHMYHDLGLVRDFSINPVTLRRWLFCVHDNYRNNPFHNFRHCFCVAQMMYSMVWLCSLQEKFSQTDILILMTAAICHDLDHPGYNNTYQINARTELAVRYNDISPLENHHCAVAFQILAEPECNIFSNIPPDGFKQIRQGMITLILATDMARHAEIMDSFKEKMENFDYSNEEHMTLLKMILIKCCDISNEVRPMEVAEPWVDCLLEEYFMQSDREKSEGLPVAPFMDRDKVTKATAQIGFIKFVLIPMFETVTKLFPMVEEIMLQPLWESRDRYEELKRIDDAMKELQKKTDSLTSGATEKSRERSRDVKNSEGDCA
# [3] = Selectivity index, ratio of IC50 for bovine brain PDE1 to IC50 for full length human PDE9A
# [4] = Blood clearance in Wistar rat at 1 mg/kg, po or 0.3 mg/kg, iv measured over 24 hrs by LC-MS/MS analysis; type: ADME, organism-based; conditions: in vivo
# [5] = Volume of distribution at steady state in Wistar rat at 1 mg/kg, po or 0.3 mg/kg, iv measured over 24 hrs by LC-MS/MS analysis; type: ADME, organism-based; conditions: in vivo
# [6] = MRT in Wistar rat at 0.3 mg/kg, iv measured over 24 hrs by LC-MS/MS analysis; type: ADME, organism-based; conditions: in vivo
# [7] = Oral bioavailability in Wistar rat at 1 mg/kg measured over 24 hrs by LC-MS/MS analysis; type: ADME, organism-based; conditions: in vivo
# [8] = Blood clearance in dog at 1 mg/kg, po or 0.3 mg/kg, iv measured over 24 hrs by LC-MS/MS analysis; type: ADME, organism-based, Canis lupus familiaris; conditions: in vivo
# [9] = Volume of distribution at steady state in dog at 1 mg/kg, po or 0.3 mg/kg, iv measured over 24 hrs by LC-MS/MS analysis; type: ADME, organism-based, Canis lupus familiaris; conditions: in vivo
# [10] = MRT in dog at 0.3 mg/kg, iv measured over 24 hrs by LC-MS/MS analysis; type: ADME, organism-based, Canis lupus familiaris; conditions: in vivo
# [11] = Oral bioavailability in dog at 1 mg/kg measured over 24 hrs by LC-MS/MS analysis; type: ADME, organism-based, Canis lupus familiaris; conditions: in vivo
# [12] = Solubility of compound in PBS at pH 7 incubated for 24 hrs by UV based HPLC analysis; type: physicochemical; conditions: buffer, pH 7, 24 h
# [13] = Protein binding in rat plasma assessed as fraction unbound incubated for 6 hrs by LC-MS/MS analysis; type: ADME, cell-free
# [14] = Protein binding in human plasma assessed as fraction unbound incubated for 6 hrs by LC-MS/MS analysis; type: ADME, cell-free
# [15] = molecular target: T1, High affinity cGMP-specific 3',5'-cyclic phosphodiesterase 9A (Mus musculus, UniProt O70628); experiment: Inhibition of mouse PDE9A expressed in recombinant CHO cells coexpressing soluble guanylate cyclase incubated for 6 mins by [3H]-cGMP scintillation proximity assay; type: cell-based
# T1 sequence (O70628 whole entry): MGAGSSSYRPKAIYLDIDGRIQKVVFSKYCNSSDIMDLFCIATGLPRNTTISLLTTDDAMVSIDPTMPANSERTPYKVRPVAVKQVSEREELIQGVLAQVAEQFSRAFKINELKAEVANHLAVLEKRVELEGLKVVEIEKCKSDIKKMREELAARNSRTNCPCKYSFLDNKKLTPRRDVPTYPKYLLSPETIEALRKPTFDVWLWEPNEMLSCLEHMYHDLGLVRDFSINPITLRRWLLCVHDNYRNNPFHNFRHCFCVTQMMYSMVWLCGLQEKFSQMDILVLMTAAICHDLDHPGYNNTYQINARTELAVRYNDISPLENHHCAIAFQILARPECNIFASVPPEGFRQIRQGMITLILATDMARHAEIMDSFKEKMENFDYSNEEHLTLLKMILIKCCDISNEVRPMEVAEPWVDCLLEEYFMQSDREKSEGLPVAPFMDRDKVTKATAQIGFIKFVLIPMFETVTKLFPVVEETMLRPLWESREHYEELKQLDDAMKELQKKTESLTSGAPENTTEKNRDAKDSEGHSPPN
# [16] = Protein binding in mouse plasma assessed as fraction unbound incubated for 6 hrs by LC-MS/MS analysis; type: ADME, cell-free
# [17] = Protein binding in dog plasma assessed as fraction unbound incubated for 6 hrs by LC-MS/MS analysis; type: ADME, cell-free, Canis lupus familiaris
# [18] = Protein binding in monkey plasma assessed as fraction unbound incubated for 6 hrs by LC-MS/MS analysis; type: ADME, cell-free, Macaca mulatta; conditions: rhesus monkey
# Cytochrome P450 2C9 = Cytochrome P450 2C9 (Homo sapiens, UniProt P11712); experiment: Inhibition of CYP2C9 in human liver microsomes using diclofenac as substrate by LC-MS/MS analysis; type: ADME, Microsome
# Chain of Cytochrome P450 2C9 (P11712 whole entry): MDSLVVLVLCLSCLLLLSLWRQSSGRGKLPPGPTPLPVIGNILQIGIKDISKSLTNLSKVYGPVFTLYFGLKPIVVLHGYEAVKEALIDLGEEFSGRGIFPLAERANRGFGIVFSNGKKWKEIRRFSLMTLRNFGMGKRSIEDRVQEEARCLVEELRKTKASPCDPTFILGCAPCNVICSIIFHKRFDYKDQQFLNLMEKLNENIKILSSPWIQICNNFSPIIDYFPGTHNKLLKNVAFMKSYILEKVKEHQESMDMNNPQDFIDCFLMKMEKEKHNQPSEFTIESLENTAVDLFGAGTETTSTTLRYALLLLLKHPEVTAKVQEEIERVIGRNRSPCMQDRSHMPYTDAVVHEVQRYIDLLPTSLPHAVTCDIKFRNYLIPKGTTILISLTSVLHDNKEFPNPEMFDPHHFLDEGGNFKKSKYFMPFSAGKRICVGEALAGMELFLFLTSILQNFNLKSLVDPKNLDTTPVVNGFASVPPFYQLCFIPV
# [19] = Induction of CYP3A4 mRNA expression in human hepatocytes at 9.2 uM incubated for 48 hrs with media replacement for […] by qPCR analysis; type: ADME, cell-based, Hepatocyte
# [20] = Stability in human hepatocytes assessed as drug degradation incubated for 4 hrs; type: ADME, cell-based, Hepatocyte
# [21] = Toxicity in rat assessed as increase in blood pressure at 5 to 40 mg/kg, po administered once daily via gavage and measured every 5 mins by telemetry system based analysis; type: organism-based; conditions: in vivo, dose 5-40 mg/kg
# [22] = Toxicity in rat assessed as increase in heart rate at 5 to 40 mg/kg, po administered once daily via gavage and measured every 5 mins by telemetry system based analysis; type: organism-based; conditions: in vivo, dose 5-40 mg/kg
# Homo sapiens [23] = species on record: Homo sapiens; experiment: Selectivity index, ratio of IC50 for full length human PDE2A to IC50 for full length human PDE9A
# Homo sapiens [24] = species on record: Homo sapiens; experiment: Selectivity index, ratio of IC50 for full length human PDE3B to IC50 for full length human PDE9A
# Homo sapiens [25] = species on record: Homo sapiens; experiment: Selectivity index, ratio of IC50 for human platelet PDE5A to IC50 for full length human PDE9A
# Homo sapiens [26] = species on record: Homo sapiens; experiment: Selectivity index, ratio of IC50 for full length human PDE7B to IC50 for full length human PDE9A
# Homo sapiens [27] = species on record: Homo sapiens; experiment: Selectivity index, ratio of IC50 for full length human PDE8A to IC50 for full length human PDE9A
# Homo sapiens [28] = species on record: Homo sapiens; experiment: Selectivity index, ratio of IC50 for full length human PDE10A to IC50 for full length human PDE9A
# Homo sapiens [29] = species on record: Homo sapiens; experiment: Selectivity index, ratio of IC50 for full length human PDE11A to IC50 for full length human PDE9A
# Homo sapiens [30] = species on record: Homo sapiens; experiment: Selectivity index, ratio of IC50 for full length human PDE4B to IC50 for full length human PDE9A
# [31] = Selectivity index, ratio of IC50 for bovine PDE6 to IC50 for full length human PDE9A
# [32] = molecular target: T2, High affinity cGMP-specific 3',5'-cyclic phosphodiesterase 9A (Mus musculus) (UniProt O70628); experiment: Inhibition of mouse PDE9A using [3H]-cGMP as substrate at 34 nM incubated for 60 mins by microbeta scintillation counter analysis relative to control
# T2 sequence (whole entry): T1 sequence (O70628 whole entry)
# [33] = molecular target: T3, High affinity cGMP-specific 3',5'-cyclic phosphodiesterase 9A (Rattus norvegicus) (UniProt Q8QZV1); experiment: Inhibition of rat PDE9A using [3H]-cGMP as substrate at 42 nM incubated for 60 mins by microbeta scintillation counter analysis relative to control
# T3 sequence (whole entry): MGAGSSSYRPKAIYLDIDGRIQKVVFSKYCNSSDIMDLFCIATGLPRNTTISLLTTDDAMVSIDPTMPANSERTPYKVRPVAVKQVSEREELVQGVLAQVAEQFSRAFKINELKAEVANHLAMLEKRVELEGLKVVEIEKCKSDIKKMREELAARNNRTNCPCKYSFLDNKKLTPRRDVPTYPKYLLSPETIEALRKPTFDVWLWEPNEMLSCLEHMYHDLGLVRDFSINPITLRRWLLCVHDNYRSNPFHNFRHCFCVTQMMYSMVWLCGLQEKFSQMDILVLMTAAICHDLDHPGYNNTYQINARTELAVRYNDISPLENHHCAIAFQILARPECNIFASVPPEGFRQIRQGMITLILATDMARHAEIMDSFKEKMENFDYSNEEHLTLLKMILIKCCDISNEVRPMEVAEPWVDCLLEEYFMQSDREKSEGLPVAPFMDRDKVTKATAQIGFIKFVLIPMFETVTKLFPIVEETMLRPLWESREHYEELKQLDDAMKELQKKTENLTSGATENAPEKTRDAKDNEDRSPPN
# Rattus norvegicus [34] = experiment: In vivo inhibition of PDE9A in Sprague-Dawley rat assessed as increase in cGMP level in urine at 40 mg/kg, po measured after 85 mins by ELISA; type: functional, organism-based
# Rattus norvegicus [35] = experiment: In vivo inhibition of PDE9A in Sprague-Dawley rat assessed as increase in cGMP level in urine at 10 to 50 mg/kg, po measured after 85 mins by ELISA; type: functional, organism-based; conditions: dose 10-50 mg/kg
# [36] = Toxicity in rat assessed as increase in blood pressure at 10 to 50 mg/kg, po administered twice daily via gavage and measured every 5 mins by telemetry system based analysis; type: organism-based; conditions: in vivo, dose 10-50 mg/kg
# [37] = Toxicity in rat assessed as increase in heart rate at 10 to 50 mg/kg, po administered twice daily via gavage and measured every 5 mins by telemetry system based analysis; type: organism-based; conditions: in vivo, dose 10-50 mg/kg
# Mus musculus [38] = experiment: In vivo inhibition of PDE9A in mouse myocardial hypertrophy model with transverse aortic constriction assessed as reduction of hypertrophy of the left atrium at 10 mg/kg administered twice daily for 5 weeks; type: functional, organism-based
# Mus musculus [39] = experiment: In vivo inhibition of PDE9A in mouse myocardial hypertrophy model with transverse aortic constriction assessed as improvement of heart function at 10 mg/kg administered twice daily for 5 weeks; type: functional, organism-based
# Mus musculus [40] = experiment: In vivo inhibition of PDE9A in mouse myocardial hypertrophy model with transverse aortic constriction assessed as reduction in minimal diastolic left ventricular pressure at 10 mg/kg administered twice daily for 5 weeks; type: functional, organism-based
structure (smiles),measurement,setting,value
Cc1ccc(-c2c3c([nH]c(=O)c2C#N)C(C(C)C)CNC3)cc1.Cl (racemic),Drug metabolism,[1],Metabolite_Detected
COCC1CCCc2c1[nH]c(=O)c(C#N)c2-c1ccc(C)cc1 (racemic),Drug metabolism,[1],Metabolite_Detected
CCCCC1CCCc2c1[nH]c(=O)c(C#N)c2-c1ccc(C)cc1 (racemic),IC50,[2],35 nM
CCCC1CNCc2c1[nH]c(=O)c(C#N)c2N1CCC(C)CC1 (racemic),IC50,[2],200 nM
CCCC1CNCc2c1[nH]c(=O)c(C#N)c2N1CCC2(CCOC2)CC1 (racemic),IC50,[2],13 nM
same,Ratio IC50,[3],12
CCCC1CNCc2c1[nH]c(=O)c(C#N)c2N1CCC2(CC1)CC2(F)F (racemic),Ratio IC50,[3],30
CCCC1CNCc2c1[nH]c(=O)c(C#N)c2N1CCC2(CC1)CC2 (stereo in doubt; form 1),IC50,[2],> 10000 nM
CCCC1CNCc2c1[nH]c(=O)c(C#N)c2N1CCC2(CC1)CC2.Cl (stereo in doubt; form 2),IC50,[2],15 nM
same,CL,[4],40 mL/min/kg
same,Vdss,[5],4.5 L/kg
same,MRT,[6],1.9 h
same,F,"[7]; po, 1 mg/kg, 24 h",61%
same,CL,[8],15 mL/min/kg
same,Vdss,[9],3 L/kg
same,MRT,[10],4 h
same,F,[11],80%
same,solubility,[12],> 500 µg/mL
same,Fu,[13],20%
same,Fu,[14],34%
same,EC50,[15],1000 nM
same,Fu,[16],41%
same,Fu,[17],43%
same,Fu,[18],42%
same,IC50,Cytochrome P450 2C9,16000 nM
same,Activity,[19],Active
same,Stability,[20],Stable
same,Activity,[21],Non-Toxic
same,Activity,[22],Non-Toxic
CCCC1CNCc2c1[nH]c(=O)c(C#N)c2N1CCC2(CC1)CC2 (stereo in doubt; form 2),Ratio IC50,[3],49
same,Ratio IC50,Homo sapiens [23],> 650
same,Ratio IC50,Homo sapiens [24],> 650
same,Ratio IC50,Homo sapiens [25],143
same,Ratio IC50,Homo sapiens [26],> 650
same,Ratio IC50,Homo sapiens [27],97
same,Ratio IC50,Homo sapiens [28],> 650
same,Ratio IC50,Homo sapiens [29],430
same,Ratio IC50,Homo sapiens [30],238
same,Ratio IC50,[31],101
same,inhibition,[32],50%
same,inhibition,[33],50%
same,inhibition,Rattus norvegicus [34],Active
C[C@@H]1CN(Cc2ncccn2)C[C@H]1c1nc2c(cnn2C2CCOCC2)c(=O)[nH]1 [EDELINONTRINE],CL,[4],50 mL/min/kg
same,Vdss,[5],2.2 L/kg
same,MRT,[6],0.8 h
same,bioavailability,[7]; Wistar,41%
same,CL,[8],8.3 mL/min/kg
same,Vdss,[9],1.5 L/kg
same,MRT,[10],3.1 h
same,F,[11],38%
same,inhibition,Rattus norvegicus [35],Active
same,Activity,[36],Non-Toxic
same,Activity,[37],Non-Toxic
same,inhibition,Mus musculus [38],Active
same,inhibition,Mus musculus [39],Active
same,inhibition,Mus musculus [40],Active

# From ChEMBL document CHEMBL5150071, “BAY-7081: A Potent, Selective, and Orally Bioavailable Cyanopyridone-Based PDE9A Inhibitor” (J Med Chem, 2022)
